Source: the NIST ThermoML archive (doi:10.1021/je060271a)
Several values for one entry are separate records, joined by “and”; a condition that tells them apart may be missing. Equal values may be shown once.

Conditions: 303.15 K, Liquid, Vibrating tube method

CCCCCC(=O)OCC(COC(=O)CCCCC)(COC(=O)CCCCC)COC(=O)CCCCC [pentaerythritol tetrahexanoate]
Conditions	mass density
228.5 kPa	988.5 kg/m3
228.8 kPa	988.5 kg/m3 and 988.4 kg/m3
229 kPa	988.6 kg/m3
229.5 kPa	988.6 kg/m3
229.7 kPa	988.5 kg/m3
230 kPa	988.5 kg/m3
230.2 kPa	988.5 kg/m3
230.4 kPa	988.5 kg/m3
230.8 kPa	988.5 kg/m3
230.9 kPa	988.5 kg/m3
231.1 kPa	988.3 kg/m3
231.4 kPa	988.5 kg/m3
231.8 kPa	988.4 kg/m3
233.2 kPa	988.5 kg/m3
233.5 kPa	988.4 kg/m3 and 988.5 kg/m3
242.4 kPa	988.5 kg/m3
244 kPa	988.5 kg/m3
244.1 kPa	988.6 kg/m3
244.5 kPa	988.5 kg/m3
247.3 kPa	988.5 kg/m3
247.4 kPa	988.4 kg/m3
247.8 kPa	988.5 kg/m3
248.1 kPa	988.4 kg/m3 and 988.6 kg/m3
248.3 kPa	988.5 kg/m3
249.7 kPa	988.5 kg/m3
250.2 kPa	988.5 kg/m3
250.4 kPa	988.4 kg/m3
250.6 kPa	988.5 kg/m3
250.7 kPa	988.6 kg/m3
262 kPa	988.6 kg/m3
283.9 kPa	988.4 kg/m3
284.4 kPa	988.6 kg/m3
284.8 kPa	988.6 kg/m3 and 988.5 kg/m3
287.9 kPa	988.5 kg/m3
288.2 kPa	988.6 kg/m3
288.7 kPa	988.6 kg/m3
289.1 kPa	988.6 kg/m3
289.6 kPa	988.6 kg/m3 and 988.5 kg/m3
293.3 kPa	988.6 kg/m3
294 kPa	988.7 kg/m3 and 988.6 kg/m3
294.3 kPa	988.6 kg/m3
294.8 kPa	988.5 kg/m3
295 kPa	988.5 kg/m3
295.2 kPa	988.4 kg/m3
295.9 kPa	988.6 kg/m3 and 988.5 kg/m3
296.4 kPa	988.6 kg/m3 and 988.5 kg/m3
296.9 kPa	988.6 kg/m3
297.3 kPa	988.4 kg/m3
297.6 kPa	988.5 kg/m3
305.4 kPa	988.5 kg/m3
305.8 kPa	988.6 kg/m3
305.9 kPa	988.6 kg/m3
312.9 kPa	988.4 kg/m3
313.2 kPa	988.6 kg/m3
314.1 kPa	988.6 kg/m3
314.5 kPa	988.5 kg/m3
314.8 kPa	988.5 kg/m3
315.2 kPa	988.5 kg/m3
315.8 kPa	988.6 kg/m3
324.2 kPa	988.6 kg/m3
324.7 kPa	988.5 kg/m3
329.4 kPa	988.6 kg/m3
329.9 kPa	988.6 kg/m3
330.4 kPa	988.7 kg/m3
330.8 kPa	988.6 kg/m3
331.1 kPa	988.6 kg/m3
331.5 kPa	988.5 kg/m3
331.6 kPa	988.6 kg/m3
332 kPa	988.6 kg/m3
332.7 kPa	988.6 kg/m3 and 988.7 kg/m3
334.1 kPa	988.7 kg/m3
334.4 kPa	988.5 kg/m3
334.6 kPa	988.5 kg/m3
335.1 kPa	988.6 kg/m3
335.6 kPa	988.6 kg/m3
335.7 kPa	988.6 kg/m3
336.2 kPa	988.6 kg/m3
336.5 kPa	988.6 kg/m3
337 kPa	988.6 kg/m3
337.6 kPa	988.6 kg/m3
337.9 kPa	988.6 kg/m3
338.1 kPa	988.6 kg/m3
338.3 kPa	988.5 kg/m3
339 kPa	988.5 kg/m3
340 kPa	988.6 kg/m3
341.5 kPa	988.5 kg/m3
342.1 kPa	988.6 kg/m3
342.8 kPa	988.7 kg/m3
343.1 kPa	988.5 kg/m3
343.3 kPa	988.6 kg/m3
343.8 kPa	988.5 kg/m3
389.7 kPa	988.6 kg/m3
391.9 kPa	988.5 kg/m3
393.8 kPa	988.6 kg/m3
396.4 kPa	988.7 kg/m3
398.9 kPa	988.6 kg/m3
401 kPa	988.6 kg/m3
403.1 kPa	988.6 kg/m3
405.6 kPa	988.6 kg/m3
407.9 kPa	988.5 kg/m3
410.3 kPa	988.7 kg/m3
413.3 kPa	988.6 kg/m3
415.4 kPa	988.6 kg/m3
418.3 kPa	988.7 kg/m3
420.6 kPa	988.6 kg/m3
423.2 kPa	988.6 kg/m3
426.5 kPa	988.7 kg/m3
428.6 kPa	988.7 kg/m3
431 kPa	988.6 kg/m3
434 kPa	988.6 kg/m3
436.4 kPa	988.7 kg/m3
439.4 kPa	988.6 kg/m3
442.5 kPa	988.7 kg/m3
445.1 kPa	988.7 kg/m3
448.1 kPa	988.6 kg/m3
451.4 kPa	988.6 kg/m3
579.1 kPa	988.9 kg/m3
583.8 kPa	988.9 kg/m3
588.3 kPa	988.7 kg/m3
593.5 kPa	988.7 kg/m3
598.6 kPa	988.6 kg/m3
604.3 kPa	988.7 kg/m3
609.3 kPa	988.6 kg/m3
614.4 kPa	988.7 kg/m3
620.8 kPa	988.8 kg/m3
625.5 kPa	988.7 kg/m3
631 kPa	988.8 kg/m3
635.9 kPa	988.8 kg/m3
642.5 kPa	988.8 kg/m3
648.3 kPa	988.8 kg/m3
653.8 kPa	988.8 kg/m3
660.6 kPa	988.8 kg/m3
666.7 kPa	988.8 kg/m3
672.6 kPa	988.8 kg/m3
679.9 kPa	988.7 kg/m3
686 kPa	988.7 kg/m3
838 kPa	988.9 kg/m3
872.9 kPa	989 kg/m3
882.8 kPa	988.9 kg/m3
890.8 kPa	988.9 kg/m3
899 kPa	988.9 kg/m3
907.3 kPa	989 kg/m3
916.8 kPa	989 kg/m3
925 kPa	988.8 kg/m3
933.2 kPa	989 kg/m3
941.9 kPa	988.9 kg/m3
951.9 kPa	989 kg/m3
958.5 kPa	988.9 kg/m3
967.6 kPa	989 kg/m3
978.3 kPa	988.9 kg/m3
988.8 kPa	988.9 kg/m3
998 kPa	988.9 kg/m3
1009.3 kPa	989 kg/m3
1019.8 kPa	989 kg/m3
1029.2 kPa	989 kg/m3
1039.1 kPa	989.1 kg/m3
1048.9 kPa	989 kg/m3
1061.2 kPa	989 kg/m3
1072 kPa	989 kg/m3
1082 kPa	989.1 kg/m3
1093.8 kPa	989.1 kg/m3
1103.9 kPa	989.2 kg/m3
1113.5 kPa	989 kg/m3
1123.5 kPa	989.2 kg/m3
1135.9 kPa	989 kg/m3
1146.3 kPa	989 kg/m3
1156.2 kPa	989.1 kg/m3
1166.8 kPa	989.1 kg/m3
1179.7 kPa	989.1 kg/m3
1189.9 kPa	989.1 kg/m3
1200.7 kPa	989.1 kg/m3
1210.9 kPa	989.1 kg/m3
1223.8 kPa	989.2 kg/m3
1234.4 kPa	989.1 kg/m3
1245.1 kPa	989.2 kg/m3
1258.2 kPa	989.1 kg/m3
1269.3 kPa	989.2 kg/m3
1280 kPa	989.2 kg/m3
1291.5 kPa	989.2 kg/m3
1305.2 kPa	989.2 kg/m3
1316.3 kPa	989.2 kg/m3
1327.8 kPa	989.1 kg/m3
1339.4 kPa	989.3 kg/m3
1353.7 kPa	989.2 kg/m3
1365.5 kPa	989.2 kg/m3
1377.5 kPa	989.2 kg/m3
1391.9 kPa	989.3 kg/m3
1719.8 kPa	989.5 kg/m3
1738.4 kPa	989.5 kg/m3
1753.5 kPa	989.5 kg/m3
1768.6 kPa	989.6 kg/m3
1784.2 kPa	989.5 kg/m3
1803 kPa	989.6 kg/m3
1854.3 kPa	989.5 kg/m3
1870.3 kPa	989.5 kg/m3
1886.5 kPa	989.6 kg/m3
1903.5 kPa	989.5 kg/m3
1923.6 kPa	989.6 kg/m3
2090.4 kPa	989.6 kg/m3
2108.2 kPa	989.7 kg/m3
2167.4 kPa	989.7 kg/m3
2229.2 kPa	989.8 kg/m3
2248.4 kPa	989.7 kg/m3
2292.3 kPa	989.8 kg/m3
2312.5 kPa	989.8 kg/m3
2337.4 kPa	989.9 kg/m3
2355.8 kPa	989.8 kg/m3
2380.4 kPa	989.9 kg/m3
2401.1 kPa	989.9 kg/m3
2421.9 kPa	989.8 kg/m3
2443 kPa	989.9 kg/m3
2468.5 kPa	990 kg/m3
2489.7 kPa	990 kg/m3
2511 kPa	990 kg/m3
2536.5 kPa	989.9 kg/m3
2558.6 kPa	990 kg/m3
2580.8 kPa	990 kg/m3
2603.5 kPa	990 kg/m3
2631.6 kPa	990 kg/m3
2649.5 kPa	990.1 kg/m3
2676.9 kPa	990 kg/m3
2699.1 kPa	990 kg/m3
2726.5 kPa	990 kg/m3
2749.6 kPa	990.2 kg/m3
2772.3 kPa	990.1 kg/m3
2795.2 kPa	990.1 kg/m3
2823.5 kPa	990.2 kg/m3
2846.9 kPa	990.2 kg/m3
2870.6 kPa	990.2 kg/m3
2899.1 kPa	990.1 kg/m3
2923.3 kPa	990.2 kg/m3
2948 kPa	990.2 kg/m3
2972.9 kPa	990.3 kg/m3
3001.9 kPa	990.2 kg/m3
3026.2 kPa	990.3 kg/m3
3050.9 kPa	990.3 kg/m3
3075.6 kPa	990.3 kg/m3
3105.6 kPa	990.3 kg/m3
3130.3 kPa	990.3 kg/m3
3156 kPa	990.4 kg/m3
3181.3 kPa	990.4 kg/m3
3212.3 kPa	990.4 kg/m3
3237.8 kPa	990.4 kg/m3
3263.7 kPa	990.4 kg/m3
3294.7 kPa	990.4 kg/m3
3320.9 kPa	990.4 kg/m3
3346.9 kPa	990.6 kg/m3
3378.1 kPa	990.5 kg/m3
3404.7 kPa	990.5 kg/m3
3430.9 kPa	990.6 kg/m3
3457.8 kPa	990.7 kg/m3
3490.4 kPa	990.6 kg/m3
3517.7 kPa	990.5 kg/m3
3545.6 kPa	990.5 kg/m3
3578.7 kPa	990.6 kg/m3
3606.3 kPa	990.7 kg/m3
3634.2 kPa	990.5 kg/m3
3662.6 kPa	990.7 kg/m3
3690.5 kPa	990.7 kg/m3
3724.1 kPa	990.7 kg/m3
3752.7 kPa	990.9 kg/m3
3781.8 kPa	990.7 kg/m3
3810.6 kPa	990.8 kg/m3
3844.5 kPa	990.8 kg/m3
3872.4 kPa	990.8 kg/m3
3901 kPa	990.8 kg/m3
3935 kPa	990.9 kg/m3
3963.4 kPa	990.9 kg/m3
3991.9 kPa	990.9 kg/m3
4026.4 kPa	990.9 kg/m3
4056 kPa	991 kg/m3
4084.6 kPa	991 kg/m3
4113.5 kPa	991 kg/m3
4146.8 kPa	991 kg/m3
4175 kPa	991.1 kg/m3
4876.2 kPa	991.5 kg/m3
4893.7 kPa	991.5 kg/m3
4923.8 kPa	991.5 kg/m3
4939.3 kPa	991.6 kg/m3
4955.2 kPa	991.5 kg/m3
4973.4 kPa	991.6 kg/m3
4988.8 kPa	991.5 kg/m3
5003.5 kPa	991.5 kg/m3
5021.5 kPa	991.7 kg/m3
5037.1 kPa	991.6 kg/m3
5052.1 kPa	991.7 kg/m3
5067.7 kPa	991.7 kg/m3
5086.4 kPa	991.5 kg/m3
5101.8 kPa	991.6 kg/m3
5117.7 kPa	991.7 kg/m3
